Key:
Human dermal fibroblasts [1] = assay: Collagen stimulation: procollagen type I C-peptide (PIP) EIA on conditioned medium; format: cell-based; conditions: 0.0005% compound, 48-hour incubation, increase in collagen over the vehicle control
Method: (§1) Collagen. Human dermal fibroblasts (Cascade Biologics, Portland, Oreg.) were plated at in 96-well culture plates in supplemented medium (DMEM, 10% Fetal Bovine Serum, 1% Penicillin/Streptomycin and 1% L-Glutamine) overnight in humidified atmosphere of 10% CO2 at 37° C. The following day, the medium was replaced with fresh medium (DMEM, 1% Penicillin/Streptomycin and 1% L-Glutamine) and the actives dissolved in a vehicle were added to the wells in triplicate. Vehicle was used as control. Following 48-hour incubation, the plates were removed from the incubator and the medium from each well was collected for the procollagen assay.
Collage production was measured using procollagen type I C-peptide (PIP) EIA kit (Takara Bio, Inc., Japan). Briefly, the conditioned medium was diluted 1:10 in Sample Diluent. 20 μl of diluted conditioned medium and 100 μl of antibody-POD conjugate solution were added to the wells of the Takara ELISA plate. The ELISA plate was incubated at 37° C. for 3 hours before the wells were washed four times with 400 μl of 1×PBS. At the end of wash, 100 μl of substrate solution (supplied with kit) was added to the wells and incubated at room temperature for 15 minutes. […] The absorbance was measured on a spectrophotometer at 450 nm wavelength. The amount of procollagen peptide in the conditioned medium was calculated from the standard curve. […]

Human dermal fibroblasts [2] = assay: Hyaluronic acid stimulation: hyaluronic acid test kit on conditioned medium; format: cell-based; conditions: 0.0005% compound, 48-hour incubation, increase in hyaluronic acid over the vehicle control
Method: as §1, with “Human” for “Collagen. Human”, “hyaluronic acid” for “procollagen”
Hyaluronic acid production was measured using hyaluronic acid test kit (Corgenix, Inc. CO, USA). Briefly, 100 μl diluted conditioned medium was added to appropriate microwells and was incubated for 60 minutes at room temperature. After the incubation is complete, the conditioned medium was removed and 100 μl HRP-conjugated HABP solution was added to each well and incubated for 30 minutes at room temperature. Wash each well 4 times with PBS after the incubation is complete. Add 100 μl One-component Substrate Solution to each well and incubate for 30 minutes at room temperature. Add 100 μl Stopping Solution to stop the enzyme reaction and read the O.D. of each well at 450 nm. The amount of hyaluronic acid in the conditioned medium was calculated from the standard curve. […]

With `COc1ccccc1CNc1nc(-c2ccc(O)c(C(N)=O)c2)cs1` [Formula I(c)] the Collagen stimulation (Human dermal fibroblasts [1]) was “+ (The “+” describes a stimulation of between 21-40%)”.
With `COc1cccc(-c2nc(-c3ccc(O)c(C(N)=O)c3)cs2)c1OC` [Formula I(d)] the Hyaluronic acid stimulation (Human dermal fibroblasts [2]) was “+ (The “+” describes a stimulation of between 21-40%)” and the Collagen stimulation (Human dermal fibroblasts [1]) was “+ (The “+” describes a stimulation of between 21-40%)”.
